Results taken from ChEMBL document CHEMBL1135598, “In silico and NMR identification of inhibitors of the IGF-I and IGF-binding protein-5 interaction” (J Med Chem, 2002).
Blank lines part the entries; values can stand above or below the compound they belong to.

Columns and labels:
[1] = molecular target: T1, Insulin-like growth factor-binding protein 5 (Homo sapiens, UniProt P24593); assay: Dissociation constant binding to Insulin-like growth factor binding protein 5 at the residue L-81
[2] = molecular target: T1, Insulin-like growth factor-binding protein 5; assay: Dissociation constant in PBS binding to Insulin-like growth factor binding protein 5 at the residue L81
[3] = molecular target: T1, Insulin-like growth factor-binding protein 5; assay: Dissociation constant in PBS binding to Insulin-like growth factor binding protein 5 at the residue Y86
[4] = molecular target: T1, Insulin-like growth factor-binding protein 5; assay: Dissociation constant in DMSO binding to Insulin-like growth factor binding protein 5 at the residue R87
[5] = molecular target: T1, Insulin-like growth factor-binding protein 5; assay: Dissociation constant in PBS binding to Insulin-like growth factor binding protein 5 at the residue S85
[6] = molecular target: T1, Insulin-like growth factor-binding protein 5; assay: Dissociation constant in DMSO binding to Insulin-like growth factor binding protein 5 at the residue K91
[7] = molecular target: T1, Insulin-like growth factor-binding protein 5; assay: Dissociation constant in DMSO binding to Insulin-like growth factor binding protein 5 at the residue Y86
[8] = molecular target: T1, Insulin-like growth factor-binding protein 5; assay: Dissociation constant in DMSO binding to Insulin-like growth factor binding protein 5 at the residue Y50
[9] = molecular target: T1, Insulin-like growth factor-binding protein 5; assay: Dissociation constant in DMSO binding to Insulin-like growth factor binding protein 5 at the residue L73
[10] = molecular target: T1, Insulin-like growth factor-binding protein 5; assay: Dissociation constant in DMSO binding to Insulin-like growth factor binding protein 5 at the residue L81
[11] = molecular target: T1, Insulin-like growth factor-binding protein 5; assay: Dissociation constant in PBS binding to Insulin-like growth factor binding protein 5 at the residue Y50
[12] = molecular target: T1, Insulin-like growth factor-binding protein 5; assay: Dissociation constant in PBS binding to Insulin-like growth factor binding protein 5 at the residue R87
[13] = molecular target: T1, Insulin-like growth factor-binding protein 5; assay: Dissociation constant in PBS binding to Insulin-like growth factor binding protein 5 at the residue L73
[14] = molecular target: T1, Insulin-like growth factor-binding protein 5; assay: Dissociation constant in PBS binding to Insulin-like growth factor binding protein 5 at the residue K91
[15] = molecular target: T1, Insulin-like growth factor-binding protein 5; assay: Dissociation constant in DMSO binding to Insulin-like growth factor binding protein 5 at the residue S85
[16] = molecular target: T1, Insulin-like growth factor-binding protein 5; assay: Dissociation constant in binding to Insulin-like growth factor binding protein 5 at the residue L81
[17] = molecular target: T1, Insulin-like growth factor-binding protein 5; assay: Dissociation constant in BS binding to Insulin-like growth factor binding protein 5 at the residue K91
[18] = molecular target: T1, Insulin-like growth factor-binding protein 5; assay: Dissociation constant in binding to Insulin-like growth factor binding protein 5 at the residue R87
[19] = molecular target: T1, Insulin-like growth factor-binding protein 5; assay: Dissociation constant in binding to Insulin-like growth factor binding protein 5 at the residue S85
[20] = molecular target: T1, Insulin-like growth factor-binding protein 5; assay: Dissociation constant in binding to Insulin-like growth factor binding protein 5 at the residue Y50
[21] = molecular target: T1, Insulin-like growth factor-binding protein 5; assay: Dissociation constant in binding to Insulin-like growth factor binding protein 5 at the residue L73
[22] = molecular target: T1, Insulin-like growth factor-binding protein 5; assay: Dissociation constant in binding to Insulin-like growth factor binding protein 5 at the residue Y86

T1 sequence (P24593 whole entry): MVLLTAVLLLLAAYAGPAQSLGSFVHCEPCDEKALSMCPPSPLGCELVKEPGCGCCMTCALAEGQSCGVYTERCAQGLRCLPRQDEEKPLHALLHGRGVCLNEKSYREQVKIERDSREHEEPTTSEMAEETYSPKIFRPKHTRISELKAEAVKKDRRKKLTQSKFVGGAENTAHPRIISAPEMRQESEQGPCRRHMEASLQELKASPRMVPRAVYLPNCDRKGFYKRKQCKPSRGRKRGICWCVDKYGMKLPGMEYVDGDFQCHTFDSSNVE

Kd [1]: 718 µM
SMILES: CC(C)(C)Oc1ccc(C[C@@H](NC(=O)OCC2c3ccccc3-c3ccccc32)C(=O)O)cc1

SMILES: O=C(N[C@H](Cc1ccc(OP(=O)(O)O)cc1)C(=O)O)OCC1c2ccccc2-c2ccccc21
Kd [2]: 2880 µM
Kd [3]: 1720 µM
Kd [4]: 1640 µM
Kd [5]: 2330 µM
Kd [6]: 2420 µM
Kd [7]: 1900 µM
Kd [8]: 1580 µM
Kd [9]: 1310 µM
Kd [10]: 2780 µM
Kd [11]: 1820 µM
Kd [12]: 2360 µM
Kd [13]: 2930 µM
Kd [14]: 2120 µM
Kd [1]: 2780 µM
Kd [15]: 1380 µM

Kd [16]: 610000 µM
Kd [17]: 719000 µM
Kd [18]: 921000 µM
Kd [19]: 650000 µM
Kd [20]: 648000 µM
Kd [21]: 541000 µM
Kd [22]: 783000 µM
SMILES: C[S+](C)[O-] [DIMETHYL SULFOXIDE]

Kd [1]: 1080 µM
SMILES: O=C(N[C@H](Cc1ccccc1)C(=O)O)OCC1c2ccccc2-c2ccccc21
